{"source": "patent US20080242594A1", "about": "“Methods for Promoting Stem Cell Proliferation and Survival” (priority 2005, published 2008)", "key": {"STAT3": {"system": "STAT3", "experiment": "STAT3 phosphorylation (Ser727, Tyr705) immunoblot in CNS stem cells", "type": "cell-based, mouse", "excerpt": "Ligands that activate JAK/STAT signaling promote astrocytic differentiation of CNS stem cells (Johe et al., Genes Dev 10:3129-40, 1996; Raj an et al., J Neurosci 18:3620-9, 1998; Bonni et al., Science 278:477-83, 1997; Song et al., Nat Neurosci 7:229-35, 2004; He et al., Nat Neurosci 8:616-625, 2005). When applying CNTF to CNS stem cells it was noted that low concentrations of CNTF stimulated survival but not expression of astrocyte specific genes. This is consistent with previous observations of Akt phosphorylation downstream of gp130 activation (Taga et al., Annu Rev Immunol 15:797-819, 1997). […] At high concentrations (20 ng/ml) the phosphorylation of Tyr705 can be blocked by an inhibitor of JAK while allowing a CNTF-induced increase in Ser727 phosphorylation (FIG. 2B) (Thompson et al., Bioorg Med Chem Lett 12:1219-23, 2002).\nCNTF was used as a positive control; CNTF, induced the phosphorylation on both sites. With both CNTF and Notch activation, phosphorylation peaked at around 30 min. STAT3 phosphorylation on Ser727 following Notch activation was sensitive to the γ-secretase inhibitor DAPT (FIG. 2e). […] In contrast to CNTF, no Tyr705 phosphorylation was detected at any of the doses of Notch receptor ligands.\nIt was determined that insulin also maintains phosphorylation of serine 727 in STAT3 in foetal neural stem cell cultures."}, "[1]": {"system": "rat adult subventricular zone central nervous system stem cell cultures", "experiment": "Survival of adult SVZ CNS stem cell cultures with insulin and Dll4", "type": "cell-based", "procedure": "(§1) As there was a tight correlation between the Notch survival pathway and Hes3, it was investigated as to whether Hes3 is a mediator of the Notch pro-survival signalling. It was determined that both insulin and Notch activation promote the survival of foetal and adult neural stem cell cultures and their effects are additive (Tables 8-9)."}, "IGF1/insulin receptor": {"system": "IGF1/insulin receptor", "experiment": "IGF1/insulin receptor phosphorylation in foetal NSC cultures", "type": "cell-based, mouse", "procedure": "Specifically, D114 induced the phosphorylation of IGF1/insulin receptor. Peak phosphorylation occurred at 2-5 minutes.\n(§2) It was determined that insulin facilitates Notch cleavage using immunocytochemical detection."}, "Notch1": {"system": "Notch1", "experiment": "Notch activation (Notch1IC / Notch ICD) immunocytochemical detection", "type": "cell-based, mouse", "excerpt": "Antibodies were used that specifically bind: Notch1IC (Chemicon, 5352), GFP (Molecular Probes, A11122), Oct3/4 (Santa Cruz, sc-5279), SSEA1 and SSEA4 (Developmental Studies HybridomaBank), Tra-1-60 (Chemicon, MAB4360), Tra-1-81 (Chemicon, MAB4381), human nestin (Chemicon, MAB5326), Sox-1 (Gift from Dr. R Lovell-Badge), TH (Pel-Freez, P40101-0), Tuj1 (Covance, MMS-435P), rat nestin (McKay Lab), GFAP (Dako, z0334), CNPase (Chemicon, MAB326), BrdU (Accurate, H5903), DCX (Santa Cruz, sc-8066), Sox2 (R&D, MAB2018), Hu (Molecular Probes, A21271).\nTo assay for Notch activation, cultures were treated with the Notch ligands for 1 hour and Notch1 activation was detected by immunocytochemical staining of Notch1IC (FIG. 1b).\nas §2"}, "[2]": {"system": "adult rat subventricular zone (SVZ)", "experiment": "Dividing (BrdU+) cells in SVZ after single lateral ventricle injection", "type": "in vivo", "settings": "BrdU for 3 days, sacrificed on the 5th day", "procedure": "In vivo, Notch and insulin also increase the number of dividing cells in the adult rat subventricular zone (SVZ) 5 days after a single injection It was determined that Notch and insulin co-operate to promote new (BrdU+) cells in vivo. Specifically, the reagents infused in the lateral ventricle of adult rats as a single injection. The rats were then given BrdU for 3 days and sacrificed on the 5th day (Table 10)."}, "[3]": {"system": "mouse fetal central nervous system stem cell cultures", "experiment": "Survival of fetal CNS stem cell cultures with insulin and Dll4", "type": "cell-based", "procedure": "as §1"}, "Adult SVZ CNS SC": {"system": "Adult SVZ CNS SC", "experiment": "Multi-potentiality of adult CNS stem cells after mitogen withdrawal", "type": "cell-based, rat", "settings": "FGF2 20 ng/ml 7 days, mitogen withdrawal 7 days", "procedure": "Very little protein or mRNA were detected outside the SVZ (FIG. 4g). Adult CNS stem cells can be cultured as a monolayer in vitro (FIG. 4h) and they show similar responses to extracellular signals that regulate stem cell differentiation upon withdrawal of the mitogen that sustains the undifferentiated state (Johe et al., Genes Dev 10:3129-40, 1996). To ask if Notch activation promotes survival in rat adult SVZ cultures, isolated cells were grown in the presence of FGF2 with and without Delta-4 for one week. […] When FGF2 was withdrawn for a week, cells at clonal density generated all three CNS lineages (FIG. 8C, Table 4)."}, "[4]": {"system": "spontaneously hypertensive rats (SHR) with permanent middle cerebral artery occlusion", "experiment": "Focal ischemia (PMCAO) in rats with intraventricular infusion", "type": "in vivo, rat", "settings": "stroked animals", "procedure": "For the induction of focal ischemia in rats, male spontaneously hypertensive rats (SHR) underwent permanent middle cerebral artery occlusion (PMCAO) (Leker et al., Stroke 33:1085-92, 2002). This is a highly reproducible model of focal irreversible cerebral ischemia that results in isolated fronto-parietal cortical injury. For motor disability evaluations, animals were analyzed with a standard motor disability protocol (Leker et al., Stroke 34:2000-6, 2003).\n(§3) Immuno-positive cells were analyzed by confocal microscopy counted using a non-biased system on slides obtained from homologous coronal slices containing the infarct of each animal at the position between +0.2 and −3.8 mm from the center of the bregma according to stereotaxic coordinates. Cells were enumerated in […] regions of interest, on both the ipsilateral and contralateral hemispheres (to cannula, or cannula and ischemic focus): subventricular zone (SVZ), corpus callosum and white matter and the peri-infarct cortex.\nThere is growing evidence for an endogenous repair process following injury to the telencephalon. […]\nTreatment with Notch ligand with or without FGF2 increased the number of cells that were BrdU labeled in the days immediately following the injury and these cells survived for an additional 5 weeks (FIG. 6d). […] The behavior of animals in the 45 day groups were assessed at the indicated time points."}, "[5]": {"system": "E13.5 cortical stem cells", "experiment": "Differentiation potential of embryonic CNS stem cells after Notch ligand treatment", "type": "cell-based, mouse", "settings": "5 days treatment in bFGF2 20 ng/ml, then mitogen withdrawal (WD) 3 days", "procedure": "To test whether Notch activation promoted differentiation or fate commitment, these cultures were treated with either Jagged-1 or Delta-4 for 5 days, […] The proportion of cells expressing genes characteristic of the stem or differentiated cells was determined (FIG. 8A).\nThe multipotentiality of treated cells was tested more rigorously by plating them at clonal density (50 cells/cm^2). Following five days of Delta-4+FGF2 treatment and 5 days of differentiation, 65% of the clones contained GFAP+, TUJ1+, and CNPase+ cells (FIG. 8B)."}, "adult rats": {"system": "adult rats", "experiment": "Intraventricular infusion in normal adult rats, BrdU labeled cells", "type": "in vivo, rat", "procedure": "In-vivo Experiments: All drugs were infused over one week using an Alzet osmotic pump (model 2001 delivering at a rate of 1 μl/hr for seven days). Briefly, an intracerebral cannula connected to the pump was inserted into the right lateral ventricle using the following stereotaxic coordinates: bregma AP +0, Lateral −1.5 mm dorso-ventral 3.3 mm. Animals received IP injection of the tracer BrdU (50 mg/kg) every 12 hours for 5 days beginning on day one post-operatively to label dividing cells.\nas §3\nThe effect of intraventricular administration of Delta-4 was studied in adult rats. As in other tissues, the numbers of stem cells in the adult CNS are precisely controlled. […] In vivo manipulations were designed to ask if Notch ligands can act alone or substantially alter the effect of FGF2 on the numbers of proliferating cells in the SVZ of the normal brain. Animals (N=5-6 per treatment) were fitted with a mini-osmotic pump administering artificial cerebrospinal fluid (ACSF, vehicle), FGF2, Delta-4, or a combination FGF2+Delta-4 for one week into the ventricles of three-month old rats. Animals were also given twice-daily injections of bromodeoxyuridine (BrdU) from post-op days two to six to label cells generated during this time window. Two groups of animals were analyzed at day 7 and day 45 relative to the initiation of protein delivery. Delta-4 doses were chosen to provide a roughly equal concentration in the rat adult cerebrospinal fluid as in the cell culture medium of our in vitro experiments."}, "HSF6 hES cells": {"system": "HSF6 hES cells", "experiment": "hES single cell plating efficiency, HSF-6", "type": "cell-based, human", "settings": "singly dissociated cells on MEFs, treated daily for one week", "excerpt": "The human ES cell lines HSF-6 (University of California, San Francisco; NIH # UC06, Passage 38-120) and H1 and H9 (WiCell Research Institute, NIH # WA01 and […]) were maintained on mouse embryonic fibroblasts (MEF) according to the suppliers' protocols. Immunocytochemistry and FACS analysis for the expression of Oct4 and SSEA4 and SKY karyotyping established that the starting cells are undifferentiated and have a normal set of chromosomes. For single cell survival experiments, hES colonies were harvested after treatment with 1.5 mg/ml collagenase type IV (Invitrogen), separated from the MEF feeder cells by repeated washing by gravity, gently triturated to break up colonies into small aggregates, further dissociated into a single cell solution by trypsination (0.05% trypsin/0.04% EDTA) and transferred on MEF feeder cells at a density of 10000 cells/ml. Oct-4 positive colonies were counted six days after plating. […]\nThe pro-survival effects of activation of Notch and inhibition of JAK was tested on HSF-6 (NIH code UC06, http://escell.ucsf.edu), H1 (NIH code WA01, www.wicell.org) and H9 (NIH code WA09, www.wicell.org) hES cells. Singly dissociated hES cells were plated on mouse embryo fibroblasts (MEFs), treated daily for one week and colony numbers counted. […]"}, "[6]": {"settings": "Insulin withdrawal, 2 days and then treat for 1 h"}}, "data": [{"substance": "Ins: insulin in the culture medium or infused", "values": [{"measurement": "STAT3-S727", "setting": "STAT3; +Ins, 2 days", "result": "High"}, {"measurement": "STAT3-Y705", "setting": "STAT3; +Ins, 2 days", "result": "No signal"}, {"measurement": "STAT3-S727", "setting": "STAT3; −Ins, 2 days→ +Ins, 1 hour", "result": "High"}, {"measurement": "STAT3-Y705", "setting": "STAT3; −Ins, 2 days→ +Ins, 1 hour", "result": "No signal"}, {"measurement": "Cell #", "setting": "[1]", "result": "Medium"}, {"measurement": "pIGF1 (19H7)", "setting": "IGF1/insulin receptor; +Ins, no withdrawal", "result": "High"}, {"measurement": "pIGF1 (3021)", "setting": "IGF1/insulin receptor; +Ins, no withdrawal", "result": "High"}, {"measurement": "pIGF1 (19H7)", "setting": "IGF1/insulin receptor; [6]", "result": "High"}, {"measurement": "pIGF1 (3021)", "setting": "IGF1/insulin receptor; [6]", "result": "High"}, {"measurement": "Notch ICD", "setting": "Notch1; +Ins, no withdrawal", "result": "High"}, {"measurement": "Notch ICD", "setting": "Notch1; [6]", "result": "High"}, {"measurement": "Cell #", "setting": "[2]", "result": "Medium"}, {"measurement": "Cell #", "setting": "[3]", "result": "Medium"}]}, {"substance": "FGF2: fibroblast growth factor FGF2 (233-FB) from R&D", "values": [{"measurement": "% Glia (GFAP)", "setting": "Adult SVZ CNS SC", "result": "51.8 ± 10.3", "unit": "%"}, {"measurement": "% Neurons (TUJ1)", "setting": "Adult SVZ CNS SC", "result": "43.3 ± 10.7", "unit": "%"}, {"measurement": "% Oligodendrocytes (CNPase)", "setting": "Adult SVZ CNS SC", "result": "9.4 ± 2.6", "unit": "%"}, {"measurement": "size of the injury", "setting": "[4]", "result": "21.0%±3.5 % of hemisphere volume"}, {"measurement": "% Glia (GFAP)", "setting": "[5]", "result": "49.53 ± 4.79", "unit": "%"}, {"measurement": "% Neurons (TUJ1)", "setting": "[5]", "result": "42.37 ± 6.85", "unit": "%"}, {"measurement": "% Oligodendrocytes (CNPase)", "setting": "[5]", "result": "9.12 ± 2.82", "unit": "%"}, {"measurement": "number of proliferating cells / BrdU incorporation", "setting": "adult rats; day 7, contralateral site", "result": "no significant effect over vehicle"}, {"measurement": "number of BrdU labeled cells in SVZ, corpus callosum and cortex", "setting": "adult rats; day 7, hemisphere ipsilateral to the cannula", "result": "increased the number of BrdU labeled cells"}, {"measurement": "plating efficiency relative to FGF2 controls", "setting": "HSF6 hES cells", "result": "100%±15.35"}]}]}
